“Also recorded” adds a separate entry of the source.
How the values were obtained:
[1] = system: SOD1G93A ALS mouse model; test: Motor performance in the SOD1G93A ALS mouse model (Rotarod behavioral assays); format: in vivo; conditions: intraperitoneal injections at the same drug concentration, compared with UNC669, FIG. 3J
Description: The effect of UNC669 was tested on one of the most characterized mouse model of proteotoxicity, the SOD1G93A ALS model.
A number of the newly synthesized UNC669 analogs have been tested for their effects on the clearance of misfolded proteins in the cells.

[2] = system: tau protein expressed in human HEK293 cells; test: Clearance of tau protein expressed in human HEK293 cells; format: cell-based; conditions: FIG. 4B
[3] = Brain penetration and pharmacokinetic studies using mass spectrometry analysis after intraperitoneal administration; format: in vivo; conditions: mice; for blood-brain barrier penetration (detection in brain and spinal cord tissues): within minutes after intraperitoneal administration, mass spectrometry
[4] = system: SOD1G93A ALS mouse model; conditions: SOD1G93A mice, 17 mg/kg intraperitoneal, weekly from 8 weeks of age, after 12 weeks, FIG. 2B (prior art); cited from earlier work
[5] = system: misfolded mutant SOD1 in the spinal cords; conditions: FIG. 2D (prior art), cited from earlier work

concentrations in the plasma, brain, or spinal cords ([3]; 3 hours after intraperitoneal administration, FX8 vs FX6 or UNC669, FIG. 3I)	blood-brain barrier penetration (detection in brain and spinal cord tissues) [3]	Compound	effect on improving motor performance (Rotarod) [1]	clearance / levels of tau protein [2]	motor ability / motor performance of the animals [4]	neuronal / motor neuron health (CHAT staining) ([5]; SOD1-G93A mice spinal cords)	immunostaining of spinal cords with antibody specific for misfolded proteins ([5]; SOD1-G93A mice)
highest levels of accumulation	can penetrate the blood-brain barrier	N#Cc1cccc(C(=O)N2CCC(N3CCCC3)CC2)n1 [FX8]	greater effects on improving the animals' motor performance	higher efficacy	–	–	–
–	–	O=C(c1cncc(Br)c1)N1CCC(N2CCCC2)CC1 [UNC669]	–	decrease the levels of tau proteins; also recorded: enhanced clearance of tau protein	improvement in the animals' motor performance; also recorded: improves the motor ability of the animals	improved the health of the motor neurons; also recorded: improved neuronal health	reduction of the mutant protein
–	can penetrate the blood-brain barrier	O=C(c1cncc(Cl)c1)N1CCC(N2CCCC2)CC1 [FX6]	greater effects on improving the animals' motor performance	higher efficacy	–	–	–
